Data from US20240336657A1, “G-ALPHA-S PEPTIDE INHIBITORS AND USES THEREOF” (The Regents of the University of California, priority 2021, published 2024).
Positions of bridges follow the written chain, without caps; N, C: chain ends. Non-standard residues stand in square brackets, D forms with d. Residues, ends and D or L forms follow the SMILES beside them.

Legend:
[1] = Plasma stability assay in human plasma; type: in vitro ADME; conditions: both sexes, pooled human plasma, 37° C., values represent 95% confidence intervals
Experimental: These assays were conducted by Pharmaron Beijing CO., Ltd. Cyclic peptides working solutions were prepared at 10 μM in DMEM with 10% FBS (Avantor, Cat #76294-180) or human plasma (Pooled, Male & Female, BioIVT, Cat #HMN666664). The assays were performed in duplicate. Vials were incubated at 37° C. at 60 rpm in a water bath and taken at designated time points including 0, 480, 1080 and 1440 min. For each time point, the initiation of the reaction was staggered so all the time points were terminated with cold acetonitrile containing internal standards (IS, 100 nM alprazolam, 200 nM labetalol, 200 nM Imipramine and 2 μM ketoplofen) at the same time. Samples were vortexed then centrifuged at 4° C. to remove proteins. The supernatants from centrifugation were diluted by ultra-pure H2O and used for LC-MS/MS analysis. All calculations were carried out using GraphPad Prism. Remaining percentages of parent compounds at each time point were estimated by determining the peak area ratios from extractedion chromatograms.

[2] = target: T1, GDP-bound Gαi1 (Homo sapiens, UniProt P63096); assay: Bio-layer interferometry (BLI) binding; conditions: highest concentration tested
T1 construct: hexahistidine (N, cleaved yes); made in house; host or cells: Escherichia coli BL21(DE3)
T1 sequence (P63096 with tags, fused parts or gaps): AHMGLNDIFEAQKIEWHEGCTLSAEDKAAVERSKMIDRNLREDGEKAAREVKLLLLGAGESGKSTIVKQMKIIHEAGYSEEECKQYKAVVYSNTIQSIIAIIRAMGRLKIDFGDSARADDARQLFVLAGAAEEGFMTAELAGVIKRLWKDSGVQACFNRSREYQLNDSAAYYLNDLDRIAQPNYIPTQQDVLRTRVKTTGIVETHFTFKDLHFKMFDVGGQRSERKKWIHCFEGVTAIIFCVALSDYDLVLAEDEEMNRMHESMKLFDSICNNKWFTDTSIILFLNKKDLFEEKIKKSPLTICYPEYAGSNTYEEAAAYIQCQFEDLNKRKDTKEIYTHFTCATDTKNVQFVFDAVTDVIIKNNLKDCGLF
Experimental: (§1) BLI experiments were performed using an OctetRED384 instrument from ForteBio. All experiments were performed at 25° C. using BLI buffer (10 mM HEPES pH 7.4, 150 mM NaCl, 1 mM MgCl2, 0.05% Tween-20, 0.1% DMSO, 0.2 mM GppNHp or GDP). Cyclic peptides were diluted to a series of concentrations in BLI buffer plus 10 μM Biotin. Assays were conducted in Greiner 384well, black, flat bottom polypropylene plates containing the protein solutions, BLI buffer plus 10 μM Biotin for dissociation, and serial dilutions of cyclic peptides to be tested.
(§2) Biotinylated proteins were immobilized on Streptavidin biosensors by dipping sensors into plate wells containing protein solutions at a concentration of 100-150 nM. Protein loading is around 2-3 nm. Sensors loaded with proteins were moved and dipped into wells with BLI buffer plus 10 μM Biotin to block unlabeled Streptavidin. Association-dissociation cycles of compounds were started by moving and dipping sensors to cyclic peptides dilutions and BLI buffer plus 10 μM Biotin wells alternatively. Association and dissociation times were carefully determined to ensure full association and dissociation.
(§3) Raw kinetic data collected were processed with the Data Analysis software provided by the manufacturer using single reference subtraction in which buffer-only reference was subtracted (For GN13 analysis). Because GD20 analogs have a low level of background binding, we used a double reference subtraction (buffer-only reference and non-protein-loading reference) method to calculate their kinetics values. The resulting data were analyzed based on a 1:1 binding model from which kon and koff values were obtained and then Kd values were calculated.

[3] = target: T2, GppNHp-bound Gαi1 (Homo sapiens, UniProt P63096); assay: Bio-layer interferometry (BLI) binding; conditions: highest concentration tested
T2 construct: hexahistidine (N, cleaved yes); made in house; host or cells: Escherichia coli BL21(DE3)
T2 sequence (P63096 with tags, fused parts or gaps): as above
Experimental: as §1, §2, §3

Row | SMILES | half-life at 10 μM [1] | binding to GDP-bound Gαi1 [2] | binding to GppNHp-bound Gαi1 [3]
1 | CC[C@H](C)[C@@H]1NC(=O)[C@H](CC(C)C)NC(=O)[C@@H](Cc2ccc(O)cc2)NC(=O)CSC[C@@H](C(=O)NCC(N)=O)NC(=O)[C@@H]2CCCN2C(=O)[C@H](CC(C)C)NC(=O)[C@H](CC(N)=O)NC(=O)[C@H](CC(C)C)NC(=O)[C@H](C)NC(=O)[C@H](Cc2c[nH]c3ccccc23)NC(=O)[C@H](CCC(N)=O)NC(=O)[C@H](CCCNC(=N)N)NC(=O)[C@H](Cc2ccccc2)NC(=O)[C@H]([C@@H](C)O)NC1=O [GD20-F10L] ({CH2CO}-[dY]LITFRQWALNLPCG-NH2; thioether N-14) | 7.16 to 12.7 h |  | 
2 | CC[C@H](C)[C@@H]1NC(=O)[C@H](C)NC(=O)[C@H](Cc2ccc(O)cc2)NC(=O)[C@H](C(C)C)NC(=O)[C@H](CO)NC(=O)[C@H](CCC(=O)O)NC(=O)[C@H](Cc2ccccc2)NC(=O)[C@@H](Cc2ccc(O)cc2)NC(=O)CSC[C@@H](C(=O)NCC(N)=O)NC(=O)[C@H](CC(C)C)NC(=O)[C@H]([C@@H](C)O)NC(=O)CNC(=O)[C@H](Cc2c[nH]c3ccccc23)NC1=O [GN13] ({CH2CO}-[dY]FESVYAIWGTLCG-NH2; thioether N-13) |  | no detectable binding | no detectable binding
